Key:
Assay type in all cases: cell-based, human
MMP-2 mRNA = test: Real time RT-PCR mRNA expression
Text: (§1) The real-time reverse transcription polymerase chain reaction (RT-PCR) uses fluorescent reporter molecules to monitor the production of amplification products during each cycle of the PCR reaction. This combines the nucleic acid amplification and detection steps into one homogeneous assay and use of appropriate chemistries and data analysis eliminates the need for Southern blotting or DNA sequencing for amplicon identification. Its simplicity, specificity and sensitivity, together with its potential for high throughput and the ongoing introduction of new chemistries, more reliable instrumentation and improved protocols, has made real-time RT-PCR the benchmark technology for the detection and/or comparison of RNA levels.′
(§2) In order to detect and quantify the expression of specific genes at mRNA level, real-time reverse transcriptase polymerase chain reaction (Real time RT-PCR) was performed. Total RNA of samples was isolated and purified using the PureLink® RNA Mini Kit (Life technologies). The concentration of total RNA was detected by NanoDrop 2000 Spectrophotometer (Thermo Scientific). The total RNA (2000 ng) was reverse transcribed using the High-Capacity cDNA Reverse Transcription Kit (Applied Biosystems™).
(§3) The primers of target genes were TaqMan™ Gene Expression Assay for human PLAU (Hs01547054_m1), MMP-2 (Hs01548727_ml), MMP-9 (Hs00957562_m1), Snail-1 (Hs00195591_m1), Snail-2 (Hs00161904_m1), N-cadherin (Hs00983056_m1) and Twist (Hs01675818_s1). Relative quantification was done by reference to 18S ribosomal RNA (18S rRNA) and analysed using the comparative critical threshold (Ct) method
(§4) The mRNA expression of MMPs was measured using qRT-PCR. This was tested three independent times; the results are shown in Tables 8, 9 and 10 for U251, U87 cells and 081024 cells respectively. Results are reported as percent of the control cells (no treatment). SEQ ID NO.

MMP-9 mRNA = test: Real time RT-PCR mRNA expression
Text: as §1, §2, §3, §4

uPA (PLAU) mRNA = test: Real time RT-PCR mRNA expression
Text: as §1, §2, §3, §4

uPA = test: Casein-plasminogen zymography of conditioned media (uPA production); conditions: for uPA production: conditioned medium, compared to no-peptide control
Text: (§5) To assess whether the peptide SEQ ID NO. 1 impacted MMP-2, MMP-9 and uPA production Zymography was used.
(§6) Zymography is a technique for studying hydrolytic enzymes on the basis of substrate degradation (Vandooren, J. et al. 2013). The in-gel zymography hydrolytic enzymes are separated by their molecular weights and detected by their ability to degrade a substrate. To detect the activity of MMP-2 and MMP-9 in various cell lines, conditioned media were collected in 3 independent experiments and analysed by gelatin zymography to quantify the level of gelatin digestion, which reflects MMP-2 and MMP-9 activity and production. Cascin-Plasminogen zymography was conducted to determine the activity level of uPA in the conditioned medium from various cell lines. Active uPA converts plasminogen into plasmin which then digests casein, thus clear bands where digestion of casein have occurred indirectly represent uPA activity.
(§7) The effect of the peptides on matrix protease production was tested using in-gel zymography. If the substrate included in the gel is gelatin, the enzymes detected are gelatinases: MMP-2 and MMP-9 (the latter is often of low abundance). If the gel contains casein and plasminogen, the enzymes tested are urokinase plasminogen activators (uPA); uPA is a therapeutic target in GBM.
(§8) An equal amount of protein from each sample was mixed with 5 μL of Laemmli buffer (0.01% Bromophenol Blue (W/V), 5% SDS (W/V), 22% glycerol (V/V), 14% 0.5 M Tris pH 6.8 (V/V)) and loaded onto a 10% polyacrylamide gel co-polymerized with 1 mg/ml of gelatin, and electrophoresed at 120V for 2 hours on ice. The gel was incubated in […] solution (Triton X-100 2.5% (V/V), 1 M Tris pH 7.5 5% (V/V), 0.5 M CaCl2) 1% (W/V) at room temperature overnight on an orbital shaker. The gel was incubated in a second solution for 3 hours at 37° C. The gel was then stained with Coomassie blue solution (Coomassie blue 0.25%, methanol 45%, acetic acid 10%) and destained in methanol 25% (V/V), acetic acid 10% (V/V) destaining solution until clear bands against the dark background appeared around 72 kDa and 95 kDa, representing MMP-2 and MMP-9 activity, respectively. Clear bands around 50 kDa appeared against the dark background representing uPA activity. The gels were scanned, and uPA, MMP-2 and MMP-9 were quantified by densitometry using NIH Image J software.
(§9) SEQ ID NO. 1 was compared to a control containing no peptide to evaluate whether the peptide can reduce the production of matrix proteinases. A reduction in the production of matrix proteinases may be anticipated to result in comparatively less degradation of the extra-cellular matrix and so this could be one pathway by which the invasion potential could be reduced.

MMP-2 = test: Gelatin zymography of conditioned media (metalloprotease production); conditions: for MMP-2 production: conditioned medium, compared to no-peptide control
Text: as §5, §6, §7, §8, §9

MMP-9 = test: as above; conditions: conditioned medium, compared to no-peptide control
Text: as §5, §6, §7, §8, §9

[1] = 081024 cells, baseline expression level = 1
[2] = U87 cells, baseline expression level = 1
[3] = U251 cells, relative to untreated control, 18S rRNA reference
[4] = overall, versus no-peptide control

CC(C)C[C@@H](NC(=O)[C@@H](Cc1ccccc1)NC(=O)CNC(=O)CNC(=O)[C@H](N)Cc1ccc(O)cc1)C(=O)N[C@H](CCCNC(=N)N)C(=O)N[C@H](CCCNC(=N)N)C(N)=O [SEQ ID NO. 1, tyr-Gly-Gly-phe-leu-arg-arg-NH2]
MMP-2 mRNA expression (MMP-2 mRNA; [1]): 0.72
MMP-2 mRNA expression (MMP-2 mRNA; [2]): 0.74
effect on mRNA expression of MMP-2 (in words) (MMP-2 mRNA; U251, U87 and 081024 cells): did not have a statistically significant effect
MMP-2 mRNA expression (MMP-2 mRNA; [3]): 0.95
MMP-9 mRNA expression (MMP-9 mRNA; [1]): 0.54
MMP-9 mRNA expression (MMP-9 mRNA; [2]): 0.71
effect on mRNA expression of MMP-9 (in words) (MMP-9 mRNA; U251, U87 and 081024 cells): did not have a statistically significant effect
MMP-9 mRNA expression (MMP-9 mRNA; [3]): 1.10
uPA mRNA expression (uPA (PLAU) mRNA; [1]): 0.67
uPA mRNA expression (uPA (PLAU) mRNA; [2]): 1.20
effect on mRNA expression of uPA (in words) (uPA (PLAU) mRNA; U251, U87 and 081024 cells): did not have a statistically significant effect
uPA mRNA expression (uPA (PLAU) mRNA; [3]): 0.82
uPA production (uPA; 081024 cells): 97.57 ± 13.7
uPA production (uPA; U87 cells): 109.1 ± 12.41
uPA production (uPA; U251 cells): 95.22 ± 12.83
effect on production of uPA (in words) (uPA; [4]): did not decrease the production
MMP-2 production (MMP-2; 081024 cells): 100.50
MMP-2 production (MMP-2; U87 cells): 91.11
MMP-2 production (MMP-2; U251 cells): 97.13
effect on production of MMP-2 (in words) (MMP-2; [4]): did not decrease the production
MMP-9 production (MMP-9; 081024 cells): 101.4
MMP-9 production (MMP-9; U87 cells): 67.83
MMP-9 production (MMP-9; U251 cells): 65.41
